Laboratory results reported in US10927085B2, “1,2-naphthoquinone based derivative and method of preparing the same” (HUEN Co., Ltd., priority 2013, dated 2021).
Read-outs that look alike come from different tables or passages of the source.

Assays:
NQO1 protein = NQO1 protein (Homo sapiens, UniProt P15559); assay: NQO1 activity measurement (cytochrome C reduction); format: biochemical
Description: An enzyme reaction solution included 25 mM Tris/HCl (pH 7.4), 0.14% bovine serum albumin, 200 μM NADH, 77 μM cytochrome C, and 5 ng of NQO1 protein. Enzymatic reaction was initiated by adding NADH and performed at 37° C. In this regard, a reaction rate was measured by observing absorbance, which was increased due to reduction of cytochrome C, at 550 nm for 10 minutes and NQO1 activity was represented as an amount of reduced cytochrome C [nmol cytochrome C reduced/min/μg protein].
Extinction coefficient for cytochrome C:21.1 mmol/L/cm=21.1 μmol/ml/cm

cells = assay: Measurement of lactate change amount within cells; format: cell-based
Description: Cells were treated with 400 μl of 6% PCA, and then collected and extracted. Centrifugation (13,000 rpm, 10 min) was performed. A precipitate was dried using a Speed-Vac and then a weight of dried precipitate was measured. A supernatant was neutralized using 400 μl of 1 M KOH and a final volume thereof was adjusted to 1 ml using 0.33 M KH2PO4/K2HPO4, pH 7.5. Centrifugation (13,000 rpm, 10 min) was performed and the amount of lactate in a supernatant was measured (Megazyme, K-LATE).

[1] = 5 μM, 37° C., absorbance at 550 nm for 10 minutes, 200 μM NADH, 77 μM cytochrome C, 5 ng NQO1 protein

Chain of NQO1 protein (P15559 whole entry, species assumed): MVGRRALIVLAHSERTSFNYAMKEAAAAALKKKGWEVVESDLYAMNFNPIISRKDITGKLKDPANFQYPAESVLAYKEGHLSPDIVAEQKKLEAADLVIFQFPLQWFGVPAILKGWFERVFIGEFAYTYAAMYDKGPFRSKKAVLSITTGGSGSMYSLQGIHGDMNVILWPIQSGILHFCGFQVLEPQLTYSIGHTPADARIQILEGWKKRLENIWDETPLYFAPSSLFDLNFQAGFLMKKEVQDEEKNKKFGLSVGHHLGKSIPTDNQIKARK

Compound	NQO1 activity (5 μM, [nmol cytochrome C reduced/min/μg protein]) (NQO1 protein)	Lactate change amount within cells (nmol/mg cell) (cells)	NQO1 activity (5 μM, [nmol cytochrome C reduced/min/μg protein]) (NQO1 protein; [1])
O=C1C(=O)c2nc(CNc3ccc(Cl)cc3)oc2-c2ccccc21 [Example 44]	239.0 nmol cytochrome C reduced/min/μg protein	5.4	
COc1ccc([N+](=O)[O-])c2c1C(=O)C(=O)c1nc(C(C)(C)C)oc1-2 [Example 22, 2-tert-butyl-6-methoxy-9-nitronaphtho[2,1-d]oxazole-4,5-dione]			102.5 nmol cytochrome C reduced/min/μg protein
CC(C)(C)c1nc2c(o1)-c1c(cccc1[N+](=O)[O-])C(=O)C2=O [Example 18]		13.5	382.9 nmol cytochrome C reduced/min/μg protein
CC(C)c1nc2c(o1)-c1cccc(O)c1C(=O)C2=O [Example 15, 6-hydroxy-2-isopropylnaphtho[2,1-d]oxazole-4,5-dione]		4.1	20.8 nmol cytochrome C reduced/min/μg protein
CC(C)(C)c1nc2c(o1)-c1c(N)cccc1C(=O)C2=O [Example 19]			0.4 nmol cytochrome C reduced/min/μg protein
O=C1C(=O)c2nc(CNc3ccc(F)cc3)oc2-c2ccccc21 [Example 43]	263.0 nmol cytochrome C reduced/min/μg protein	4.4	
COc1ccc(NCc2nc3c(o2)-c2ccccc2C(=O)C3=O)cc1 [Example 46]	208.0 nmol cytochrome C reduced/min/μg protein	7.4	
Cc1nc2c(o1)C(=O)C(=O)c1ncccc1-2 [Example 34]		8.9	923.5 nmol cytochrome C reduced/min/μg protein
CC(C)(C)c1nc2c(o1)C(=O)C(=O)c1cccnc1-2 [Example 40]		8.1	527.4 nmol cytochrome C reduced/min/μg protein
COc1c([N+](=O)[O-])ccc2c1C(=O)C(=O)c1nc(C(C)(C)C)oc1-2 [Example 21, 2-tert-butyl-6-methoxy-7-nitronaphtho[2,1-d]oxazole-4,5-dione]			40.3 nmol cytochrome C reduced/min/μg protein
O=C1C(=O)c2nc(-c3ccccc3)oc2-c2ccccc21 [Example 3, 2-phenylnaphtho[2,1-d]oxazole-4,5-dione]		8.1	255.5 nmol cytochrome C reduced/min/μg protein
CC(C)(C)c1nc2c(o1)-c1c(O)cccc1C(=O)C2=O [Example 25, 2-tert-butyl-9-hydroxynaphtho[2,1-d]oxazole-4,5-dione]			23.5 nmol cytochrome C reduced/min/μg protein
CC(C)c1nc2c(o1)C(=O)C(=O)c1ncccc1-2 [Example 33]		10.2	458.3 nmol cytochrome C reduced/min/μg protein
CC(C)C(=O)Nc1ccc2c(c1)C(=O)C(=O)c1oc(C(C)(C)C)nc1-2 [Example 38, N-(2-tert-butyl-4,5-dioxo-4,5-dihydronaphtho[1,2-d]oxazol-7-yl)isobutyramide]		4.6	63.4 nmol cytochrome C reduced/min/μg protein
Cc1cc(=O)[nH]c2c1-c1oc(C(C)C)nc1C(=O)C2=O [Example 14, 2-isopropyl-9-methyloxazolo[5,4-f]quinoline-4,5,7(6H)-trione]	104.2 nmol cytochrome C reduced/min/μg protein		
CC(C)(C)c1nc2c(o1)-c1c([N+](=O)[O-])ccc(O)c1C(=O)C2=O [Example 23, 2-tert-butyl-6-hydroxy-9-nitronaphtho[2,1-d]oxazole-4,5-dione]			60.9 nmol cytochrome C reduced/min/μg protein
Cc1cc(F)ccc1NCc1nc2c(o1)-c1ccccc1C(=O)C2=O [Example 49]		6.0	229.6 nmol cytochrome C reduced/min/μg protein

Compound	NQO1 activity (5 μM, [nmol cytochrome C reduced/min/μg protein]) (NQO1 protein)	Lactate change amount within cells (nmol/mg cell) (cells)	NQO1 activity (5 μM, [nmol cytochrome C reduced/min/μg protein]) (NQO1 protein; [1])
COc1cccc2c1C(=O)C(=O)c1nc(C(C)(C)C)oc1-2 [Example 16, 2-tert-butyl-6-methoxynaphtho[2,1-d]oxazole-4,5-dione]			4.2 nmol cytochrome C reduced/min/μg protein
O=C1C(=O)c2[nH]c(=O)oc2-c2ccccc21 [Example 39]		7.8	30.1 nmol cytochrome C reduced/min/μg protein
O=C1C(=O)c2nc(CNc3ccccc3)oc2-c2ccccc21 [Example 48]	241.4 nmol cytochrome C reduced/min/μg protein	6.9	
O=C1C(=O)c2nc(CN3CCCCC3)oc2-c2ccccc21 [Example 6, 2-(piperidin-1-ylmethyl)naphtho[2,1-d]oxazole-4,5-dione]		6.7	171.8 nmol cytochrome C reduced/min/μg protein
CC(C)c1nc2c(o1)-c1c(N)cccc1C(=O)C2=O [Example 13]			68.6 nmol cytochrome C reduced/min/μg protein
CC(=O)OCc1nc2c(o1)-c1ccccc1C(=O)C2=O [Example 50]		8.8	244.3 nmol cytochrome C reduced/min/μg protein
CC(C)(C)c1nc2c(o1)C(=O)C(=O)c1cc(Cl)ccc1-2 [Example 31, 2-tert-butyl-7-chloronaphtho[1,2-d]oxazole-4,5-dione]		10.9	
COc1cccc2c1C(=O)C(=O)c1nc(C(C)C)oc1-2 [Example 10, 2-isopropyl-6-methoxynaphtho[2,1-d]oxazole-4,5-dione]		11.5	20.7 nmol cytochrome C reduced/min/μg protein
CC(C)c1nc2c(o1)-c1cccnc1C(=O)C2=O [Example 20, 2-isopropyloxazolo[5,4-f]quinoline-4,5-dione]		9.2	221.0 nmol cytochrome C reduced/min/μg protein
Cc1cc(=O)n(C)c2c1-c1oc(C(C)C)nc1C(=O)C2=O [Example 7, 2-isopropyl-6,9-dimethyloxazolo[5,4-f]quinoline-4,5,7(6H)-trione]	69.8 nmol cytochrome C reduced/min/μg protein	8.0	
O=C1C(=O)c2nc(CNc3cccc(Cl)c3)oc2-c2ccccc21 [Example 45]	229.2 nmol cytochrome C reduced/min/μg protein	6.7	
CC(C)c1nc2c(o1)-c1c(cccc1[N+](=O)[O-])C(=O)C2=O [Example 12, 2-isopropyl-9-nitronaphtho[2,1-d]oxazole-4,5-dione]		10.3	379.2 nmol cytochrome C reduced/min/μg protein
CC(C)(C)c1nc2c(o1)-c1cccc(O)c1C(=O)C2=O [Example 17, 2-tert-butyl-6-hydroxynaphtho[2,1-d]oxazole-4,5-dione]			7.4 nmol cytochrome C reduced/min/μg protein
CN(Cc1nc2c(o1)-c1ccccc1C(=O)C2=O)c1ccc(F)cc1 [Example 47]		7.6	227.5 nmol cytochrome C reduced/min/μg protein
CC(C)c1nc2c(o1)-c1cnccc1C(=O)C2=O [Example 37, 2-isopropyloxazolo[4,5-h]isoquinoline-4,5-dione]		10.6	845.7 nmol cytochrome C reduced/min/μg protein
COc1cccc2c1-c1oc(CN(C)C)nc1C(=O)C2=O [Example 11, 2-((dimethylamino)methyl)-9-methoxynaphtho[2,1-d]oxazole-4,5-dione]		6.6	
